In patent publication US11000033B2, “Ketone or oxime compound, and herbicide” (NISSAN CHEMICAL CORPORATION, priority 2014, dated 2021):

Assays:
Format in all cases: in vivo
[1] = tested on: Scirpus juncoides; assay: Test Example 2: herbicidal activity, application during weed generation in submerged conditions (symbol B); details: Table 23; application herbicide amount 320 g/ha; grade 0-5 by criteria of Test Example 1
In short: (§1)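 Submerged alluvial soil (4 cm) sown with mixed seed; greenhouse 25–30° C. 1–2 leaf: diluted emulsion onto water surface, preset dose. Visual score, 3 wk.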

[2] = tested on: rice plant; assay: Test Example 5: effect on crop by foliage application, plastic box (symbol b); details: 320 g/ha, 3 weeks after application
In short: (§2)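 In a plastic box 7 cm deep filled with sterilized diluvial soil, seeds of crops and weeds such as Digitaria ciliaris, Avena fatua and Amaranthus retroflexus are sown in spots and covered with about 1.5 cm of soil before greenhouse growth at 25–30° C.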

[3] = tested on: Stellaria media; assay: Test Example 5: herbicidal effect by foliage application, plastic box (symbol P); details: 320 g/ha, 3 weeks after application
In short: (§3)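 Visual herbicidal score, taken three weeks post-application, of seedlings sprayed on the foliage with water-diluted emulsion at a predetermined amount; plants were 14 days old, greenhouse-raised at 25° C. to 30° C.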

[4] = tested on: beet; assay: Test Example 5: effect on crop by foliage application, plastic box (symbol f); details: 320 g/ha, 3 weeks after application
In short: as §2

[5] = tested on: Amaranthus retroflexus; assay: Test Example 5: herbicidal effect by foliage application, plastic box (symbol N); details: 320 g/ha, 3 weeks after application
In short: as §3

[6] = tested on: Abutilon theophrasti; assay: Test Example 4: herbicidal effect by soil treatment (symbol M); details: application herbicide amount 320 g/ha
In short: (§4)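 Seeds were sown in sterilized diluvial soil, covered with about 1.5 cm of soil, and the soil surface was sprayed with a water-diluted emulsion of the compound at a predetermined rate. Plants grew in a greenhouse at 25° C. to 30° C.; effects were scored visually 3 weeks after application.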

[7] = tested on: wheat; assay: Test Example 5: effect on crop by foliage application, plastic box (symbol e); details: 320 g/ha, 3 weeks after application
In short: as §2

[8] = tested on: Digitaria ciliaris; assay: Test Example 4: herbicidal effect by soil treatment (symbol F); details: application herbicide amount 320 g/ha
In short: as §4

[9] = tested on: Amaranthus retroflexus; assay: Test Example 4: herbicidal effect by soil treatment (symbol N); details: application herbicide amount 320 g/ha
In short: as §4

[10] = tested on: Echinochloa crus-galli var. crus-galli; assay: Test Example 4: herbicidal effect by soil treatment (symbol H); details: application herbicide amount 320 g/ha
In short: as §4

[11] = tested on: Digitaria ciliaris; assay: Test Example 5: herbicidal effect by foliage application, plastic box (symbol F); details: 320 g/ha, 3 weeks after application
In short: as §3

[12] = tested on: Apera spica-venti; assay: Test Example 4: herbicidal effect by soil treatment (symbol L); details: application herbicide amount 320 g/ha
In short: as §4

[13] = tested on: Echinochloa oryzacola Vasing.; assay: Test Example 2: herbicidal activity, application during weed generation in submerged conditions (symbol A); details: Table 23; application herbicide amount 320 g/ha; grade 0-5 by criteria of Test Example 1
In short: as §1

[14] = tested on: Chenopodium album; assay: Test Example 5: herbicidal effect by foliage application, plastic box (symbol O); details: 320 g/ha, 3 weeks after application
In short: as §3

[15] = tested on: Veronica persica; assay: Test Example 5: herbicidal effect by foliage application, plastic box (symbol R); details: 320 g/ha, 3 weeks after application
In short: as §3

[16] = tested on: Avena fatua; assay: Test Example 5: herbicidal effect by foliage application, plastic box (symbol I); details: 320 g/ha, 3 weeks after application
In short: as §3

[17] = tested on: Lolium multiflorum Lam.; assay: Test Example 4: herbicidal effect by soil treatment (symbol K); details: application herbicide amount 320 g/ha
In short: as §4

[18] = tested on: Echinochloa crus-galli var. crus-galli; assay: Test Example 3: herbicidal effect by foliage application, Wagner pot (symbol H); details: application herbicide amount 320 g/ha
In short: (§5)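 Steps: fill pot with alluvial soil; add water to 0.1–0.5 cm depth; sow weed and rice seed; grow 14 days at 25–30 °C; spray diluted emulsion over the leaves; rate effect after 3 weeks.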

[19] = tested on: rapeseed; assay: Test Example 4: effect on crop by soil treatment (symbol g); details: application herbicide amount 320 g/ha
In short: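 Grown at 25° C. to 30° C. in a greenhouse, the crops came from seed sown spot-wise in sterilized diluvial soil under roughly 1.5 cm of covering soil.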

[20] = tested on: Leptochloa chinensis; assay: Test Example 3: herbicidal effect by foliage application, Wagner pot (symbol D); details: application herbicide amount 320 g/ha
In short: as §5

CON=C(C)CC1CC(O)=C(c2c(C)cc(OCC(F)(F)F)cc2C)C1=O (centres unmarked) [6-049]
Herbicidal effect grade, B: Scirpus juncoides [1]: 4 (Herbicidal ratio of 70% or higher and lower than 90%) | b: directly sowed rice plant, effect on crop grade [2]: 5 (Herbicidal ratio of 90% or more (almost completely withered)) | P: Stellaria media, herbicidal effect grade [3]: 5 (Herbicidal ratio of 90% or more (almost completely withered)) | f: beet, effect on crop grade [4]: 4 (Herbicidal ratio of 70% or higher and lower than 90%) | N: Amaranthus retroflexus, herbicidal effect grade [5]: 4 (Herbicidal ratio of 70% or higher and lower than 90%) | M: Abutilon theophrasti, herbicidal effect grade [6]: 4 (Herbicidal ratio of 70% or higher and lower than 90%) | e: wheat, effect on crop grade [7]: 5 (Herbicidal ratio of 90% or more (almost completely withered)) | F: Digitaria ciliaris, herbicidal effect grade [8]: 5 (Herbicidal ratio of 90% or more (almost completely withered)) | N: Amaranthus retroflexus, herbicidal effect grade [9]: 4 (Herbicidal ratio of 70% or higher and lower than 90%) | H: Echinochloa crus-galli var. crus-galli, herbicidal effect grade [10]: 5 (Herbicidal ratio of 90% or more (almost completely withered)) | F: Digitaria ciliaris, herbicidal effect grade [11]: 5 (Herbicidal ratio of 90% or more (almost completely withered)) | L: Apera spica-venti, herbicidal effect grade [12]: 5 (Herbicidal ratio of 90% or more (almost completely withered)) | Herbicidal effect grade, A: Echinochloa oryzacola Vasing. [13]: 5 (Herbicidal ratio of 90% or more (almost completely withered)) | O: Chenopodium album, herbicidal effect grade [14]: 5 (Herbicidal ratio of 90% or more (almost completely withered)) | R: Veronica persica, herbicidal effect grade [15]: 5 (Herbicidal ratio of 90% or more (almost completely withered)) | I: Avena fatua, herbicidal effect grade [16]: 0 (Herbicidal ratio of 5% or lower (almost no effect)) | K: Lolium multiflorum Lam., herbicidal effect grade [17]: 5 (Herbicidal ratio of 90% or more (almost completely withered)) | herbicidal effect on H (Echinochloa crus-galli var. crus-galli), grade 0-5 [18]: 5 (Herbicidal ratio of 90% or more (almost completely withered)) | g: rapeseed, effect on crop grade [19]: 5 (Herbicidal ratio of 90% or more (almost completely withered)) | herbicidal effect on D (Leptochloa chinensis), grade 0-5 [20]: 5 (Herbicidal ratio of 90% or more (almost completely withered))
